The record followed here is ChEMBL document CHEMBL4476874, “Compounds for the modulation of myc activity” (2018).

The test system of one experiment is NCI-H2171. Put plainly: Antiproliferative activity against human NCI-H2171 cells after 72 hrs by ATPlite assay. It is filed as functional, cell-based. The settings on record: NCI-H2171, 72 h.
The target in experiment [1] is Myc proto-oncogene protein (Homo sapiens, UniProt P01106). Briefly: Inhibition of human c-Myc assessed as reduction in c-Myc/Max/Ebox DNA complex formation using pre-formed complex of c-Myc and biotinylated DNA containing single Ebox-sequence followed by compound addition and further addition of his6-tagged c-Max and incubated for 2 hrs by AlphaScreen assay. A general note: Alpha assays give light when donor and acceptor beads are brought close together.
Chain of Myc proto-oncogene protein (P01106 whole entry): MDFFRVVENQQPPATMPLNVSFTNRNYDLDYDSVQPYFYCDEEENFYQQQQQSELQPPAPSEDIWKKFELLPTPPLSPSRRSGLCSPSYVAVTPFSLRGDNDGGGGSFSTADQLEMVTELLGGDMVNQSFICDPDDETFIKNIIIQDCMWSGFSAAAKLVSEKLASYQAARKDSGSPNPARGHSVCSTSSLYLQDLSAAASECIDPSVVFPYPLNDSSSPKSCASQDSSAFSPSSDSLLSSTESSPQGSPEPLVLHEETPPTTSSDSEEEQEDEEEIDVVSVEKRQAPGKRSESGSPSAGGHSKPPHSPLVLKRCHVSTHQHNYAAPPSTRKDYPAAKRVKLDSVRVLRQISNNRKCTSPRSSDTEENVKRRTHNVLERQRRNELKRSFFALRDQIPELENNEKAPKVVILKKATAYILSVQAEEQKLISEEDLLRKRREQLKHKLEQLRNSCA

Broadly, the IC50 is the concentration at which inhibition is half-maximal. Regarding `COCCNCCC(=O)Nc1sc2c(c1-c1nc3cc(-c4cncnc4)ccc3s1)CCNC2`, the IC50 is 0.3 to 1 µM in the experiment on NCI-H2171 and less than 0.3 µM in experiment [1].
With `COCCNCCC(=O)Nc1sc2c(c1-c1nc3cc(-c4ccnn4C)ccc3s1)CCNC2`, the results for the IC50 (with NCI-H2171; in experiment [1]) were less than 0.3 µM and 0.3 to 1 µM, respectively.
`CC(C)N1CCc2c(sc(NC(=O)CCN(C)C)c2-c2nc3ccccc3s2)C1`: the IC50 is less than 0.3 µM with NCI-H2171 and 0.3 to 1 µM in experiment [1].
With `CC(=O)Nc1sc2c(c1-c1nc3ccc(-c4cnn(C)c4)cc3s1)CCNC2`, the IC50 (in the experiment with NCI-H2171; in experiment [1]) was 0.3 to 1 µM each time.
With `CC(C)NCCC(=O)Nc1sc2c(c1-c1nc3cc(S(C)(=O)=O)ccc3s1)CCNC2`, the half-inhibitory concentration (IC50) in the experiment with NCI-H2171 was greater than 10 µM; in experiment [1], less than 0.3 µM.
Taken in the same sequence, the figures for `COCCNCCC(=O)Nc1sc2c(c1-c1nc3cc(-c4cccc(C#N)c4)ccc3s1)CCNC2` were less than 0.3 µM and 0.3 to 1 µM.
Regarding `COCCNCCC(=O)Nc1sc2c(c1-c1nc3cc(-c4cccc(S(N)(=O)=O)c4)ccc3s1)CCNC2`, the IC50 (in the experiment with NCI-H2171; in experiment [1]) was 0.3 to 1 µM throughout.
As to `COCCNCCC(=O)Nc1sc2c(c1-c1nc3cc(-c4ccncc4C)ccc3s1)CCNC2`, the IC50 with NCI-H2171 was less than 0.3 µM; in experiment [1] it was 1 to 10 µM.
Taken in the same sequence, the figures for `COCCNCCC(=O)Nc1sc2c(c1-c1nc3cc(-c4cncc(C(F)(F)F)c4)ccc3s1)CCNC2` were less than 0.3 µM and 0.3 to 1 µM.
As for `CCOc1ncccc1-c1ccc2sc(-c3c(NC(=O)CCNCCOC)sc4c3CCNC4)nc2c1`, the IC50 with NCI-H2171 was in the range of 0.3 to 1 µM; in experiment [1], 1 to 10 µM.
As for `CCC(C)N(CCC(=O)Nc1sc2c(c1-c1nc3ccccc3s1)CCNC2)C(C)=O` (centres undefined), the IC50 (in the experiment with NCI-H2171; in experiment [1]) was 1 to 10 µM in each case.
`COCCNCCC(=O)Nc1sc2c(c1-c1nc3cc(-c4cnccc4C)ccc3s1)CCNC2`: the IC50 in the experiment on NCI-H2171 is less than 0.3 µM; in experiment [1], 1 to 10 µM.
Take `COCCNCCC(=O)Nc1sc2c(c1-c1nc3cc(-c4ccc5ncnn5c4)ccc3s1)CCNC2`: the IC50 (in the experiment on NCI-H2171; in experiment [1]) was less than 0.3 µM throughout.
Consider `COCCNCCC(=O)Nc1sc2c(c1-c1nc3cc(-c4c(C)nn(C)c4C)ccc3s1)CCNC2`, for which the IC50 with NCI-H2171 is less than 0.3 µM; in experiment [1], 1 to 10 µM.
For `COCCNCCC(=O)Nc1sc2c(c1-c1nc3c(Nc4ccccc4)cccc3s1)CCNC2`, the IC50 in the experiment on NCI-H2171 was 0.3 to 1 µM; in experiment [1], greater than 10 µM.
Turning to `COCCNCCC(=O)Nc1sc2c(c1-c1nc3cc(-c4cnc(N5CCOCC5)nc4)ccc3s1)CCNC2`, the IC50 in the experiment with NCI-H2171 is less than 0.3 µM; in experiment [1], 0.3 to 1 µM.
For the molecule `COCCNCCC(=O)Nc1sc2c(c1-c1nc3cc(-c4ccnc(C(F)(F)F)c4)ccc3s1)CCNC2`, the IC50 is less than 0.3 µM with NCI-H2171 and 0.3 to 1 µM in experiment [1].
